Data on seven molecules can be found in US9902986B2, “Enterobactin conjugates and uses thereof” (Massachusetts Institute of Technology, priority 2013, dated 2018).

For data set [1], the system named is human colon epithelial T84 cells. The data set can be described thus: Cytotoxicity study using MTT. To be noted: 24 h; for effect on viability of T84 cells (MTT): concentrations up to 10 μM. The method, then: Colon epithelial T84 cell line (purchase from ATCC) were grown in DMEM/F12 medium containing penicillin (100 I.U./mL) and streptomycin (100 μg/mL). The cells were passed and plated in 96-well flat-bottom plates ˜16 h before treatment. Each well contained 90 µL of the cell culture at a density of 10^5 cells/mL. Stock solutions of the tested conjugates (e.g., Ent-Amp) were prepared in sterile filtered 10% DMSO/water, and 10 μL of the each solution was added to each well. The plate was incubated at 37° C. and under 5% CO2 for 24 h and 20 μL of MTT (5 mg/mL in sterile PBS) was added to each well. The plate was incubated at 37° C. for another 4 h, and the supernatant was removed from each well. DMSO (100 μL) was added to the wells to afford a purple solution, and the absorbance at 550 nm was recorded by using a plate reader. Blank readings were generated by wells that only contain the growth medium but no cells. The assay was repeated in three independent trials, and the resulting mean and standard errors are reported. […] Ent-Amp, Ent, and Amp were incubated with human colon epithelial T84 cells for 24 h.
In another exemplary experiment, the human colon epithelial T84 cell line was purchased from ATCC and cultured in 1:1 DMEM/F12 medium with 10% fetal bovine serum, 1% penicillin, and streptomycin (v/v, ATCC). The cells were grown to approximately 95% confluency and treated with 3 mL of trypsin-EDTA (Corning). A 12-mL portion of fresh medium was added to the detached cells, and the T84 cell suspension was centrifuged (600 rpm×5 min, 37° C.). The supernatant was discarded, and the cell pellet was resuspended in 6 mL of the fresh culture media. The concentration of cells was quantified by using a manual hemocytometer (VWR International) and adjusted to 1×10^5 cells/mL. A 90-μL aliquot of T84 cells were then added to 96-well plates and incubated at 37° C. and 5% CO2 for 24 h. […] DMSO (100 μL) was added to each well and the absorbance at 550 nm was recorded by using a plate reader. Blank readings were recorded on wells that only contained the medium. […]

The subject of data set [2] is E. coli ATCC 33475 (ent-). In kind it is cell-based, Escherichia coli. To be noted: 10 μM. As to the method:
(§1) General microbiology methods are as described herein or according to processes known in the art. […] Bacterial growth was assayed by measuring OD600 using a BioTek Synergy HT plate reader. Each well condition was prepared in duplicate and three independent replicates of each assay were conducted on different days. The resulting mean OD600 are reported and the error bars are the standard deviation of the mean obtained from the three independent replicates.
(§2) Three non-pathogenic E. coli strains were employed that are defective in enterobactin synthesis, enterobactin transport, or ferric enterobactin utilization in growth recovery assays. E. coli ATCC 33475 (ent-) cannot biosynthesize enterobactin, but retains the capacity to import and metabolize the siderophore.^71 E. coli H1187 (fepA-) lacks the outer membrane enterobactin receptor. E. coli K-12 JW0576 (fes-) can accumulate ferric enterobactin, but cannot release the iron because it is deficient in the enterobactin esterase Fes. As a result of these defects in iron metabolism, all three strains grow poorly under conditions of iron limitation.^71 The iron chelator 2,2′-dipyridyl (dipyridyl, DP) was used to generate iron-deficient conditions and promote expression of siderophore transport machinery in the growth recovery assays.

The subject of data set [3] is P. aeruginosa K407 (pvd-, pFr-). The data set can be described thus: Growth recovery assay, P. aeruginosa (pfeA-). In kind it is cell-based, Pseudomonas aeruginosa. To be noted: 600 μM DP; for growth inhibition of P. aeruginosa (pfeA-): micromolar concentrations. As to the method: as §1
(§3) It was next sought to determine whether the enterobactin-cargo conjugates provided growth recovery for Pseudomonas aeruginosa PAO1. This Gram-negative opportunistic human pathogen synthesizes and exports two siderophores, pyoverdine (pvd) and pyochelin (pch), and employs multiple additional mechanisms for iron acquisition.^72,73 P. aeruginosa utilizes enterobactin as a xenosiderophore, and the genes pfeA^74,75 and pirA^76 encode outer membrane enterobactin transporters. Similar to the E. coli experiments, P. aeruginosa strains deficient in siderophore production or utilization were used in growth recovery assays.

The subject of data set [4] is P. aeruginosa K648 (pvd-, pch-). The class given is cell-based, Pseudomonas aeruginosa. As to the method:
as §1, §3

The conditions of data set [5]: three catecholate groups; cited from earlier work.
The subject of data set [6] is E. coli H1187 (fepA-). Description: Growth recovery assay, E. coli (fepA-). In kind it is cell-based, Escherichia coli. To be noted: 200 μM DP. As to the method:
as §1, §2

Data set [7] concerns E. coli K-12 JW0576 (fes-). Description: Growth recovery assay, E. coli (fes-). In kind it is cell-based, Escherichia coli. To be noted: 200 μM DP. As to the method: as §1, §2
Data set [8] has as its target FepA (Escherichia coli, UniProt P05825). To be noted: E. coli outer membrane transporter; cited from earlier work.
Data set [9] addresses Lipocalin-2 (lcn2) (Homo sapiens, UniProt P80188). To be noted: cited from earlier work.

Sequence of Lipocalin-2 (lcn2) (P80188 21-198): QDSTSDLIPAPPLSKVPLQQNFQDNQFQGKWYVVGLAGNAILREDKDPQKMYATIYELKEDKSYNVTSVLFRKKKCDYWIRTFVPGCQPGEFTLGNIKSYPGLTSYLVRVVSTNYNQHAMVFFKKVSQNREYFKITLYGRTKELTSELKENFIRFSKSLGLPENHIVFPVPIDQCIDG
Sequence of FepA (P05825 23-746): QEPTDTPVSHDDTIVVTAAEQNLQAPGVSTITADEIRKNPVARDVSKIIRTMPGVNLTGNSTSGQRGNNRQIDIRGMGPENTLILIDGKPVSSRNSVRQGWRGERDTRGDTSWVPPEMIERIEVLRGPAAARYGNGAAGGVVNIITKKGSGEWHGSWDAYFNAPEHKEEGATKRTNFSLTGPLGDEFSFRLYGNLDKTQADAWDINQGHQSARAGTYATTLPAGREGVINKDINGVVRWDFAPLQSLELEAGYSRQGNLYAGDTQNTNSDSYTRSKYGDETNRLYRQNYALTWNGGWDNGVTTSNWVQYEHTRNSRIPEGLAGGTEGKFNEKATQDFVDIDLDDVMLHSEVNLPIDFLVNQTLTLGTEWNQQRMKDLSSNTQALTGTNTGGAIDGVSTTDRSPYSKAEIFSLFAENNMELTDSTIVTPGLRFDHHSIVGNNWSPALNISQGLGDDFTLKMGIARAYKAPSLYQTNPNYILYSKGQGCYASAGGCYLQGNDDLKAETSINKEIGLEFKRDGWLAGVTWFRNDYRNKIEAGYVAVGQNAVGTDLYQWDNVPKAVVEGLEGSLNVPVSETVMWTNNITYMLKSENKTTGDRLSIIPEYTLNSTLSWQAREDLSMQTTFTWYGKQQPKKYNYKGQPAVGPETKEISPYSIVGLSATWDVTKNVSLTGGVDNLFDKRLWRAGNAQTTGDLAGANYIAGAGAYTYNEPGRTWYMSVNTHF

As for `CC1(C)S[C@@H]2[C@H](NC(=O)[C@H](N)c3ccccc3)C(=O)N2[C@H]1C(=O)O` [Amp, Ampicillin], the “effect on viability of T84 cells (MTT)” value in data set [1] was “did not affect the viability of human cells significantly”.

`O=C(N[C@H]1COC(=O)[C@@H](NC(=O)c2cccc([O-])c2[O-])COC(=O)[C@@H](NC(=O)c2cccc([O-])c2[O-])COC1=O)c1cccc([O-])c1[O-].[Fe+3]` [Ent with pre-loaded Fe]: the “effect on viability of T84 cells (MTT)” value in [1] is recorded as “did not exhibit this effect”.

With `O=C(N[C@H]1COC(=O)[C@@H](NC(=O)c2cccc(O)c2O)COC(=O)[C@@H](NC(=O)c2cccc(O)c2O)COC1=O)c1cccc(O)c1O` [L-Ent, Enterobactin], in [2] (50% MHB, 200 μM DP, 30° C., t=19 h), the “OD600 of E. coli (ent-) culture” value is roughly 0.2. In addition, in data set [3], the “growth enhancement of P. aeruginosa (pfeA-)” value was “no growth enhancement” and the “growth inhibition of P. aeruginosa (pfeA-)” value is “growth inhibition at micromolar concentrations”. For the same molecule, the “decrease of percent survival of T84 cells” value in [1] (10 μM) is “approximately 30%”. The “OD600 of P. aeruginosa (pvd-, pch-) culture” value in data set [4] (low-micromolar concentrations, 50% MHB, 600 μM DP, 30° C., t=19 h) is recorded as roughly 0.40. The “Ka for Fe(III) coordination” value in [5] was ~10^49 M^−1.

As for `CC(C)(C)OC(=O)NCCOCCOCCOCCNC(=O)c1cc(O)c(O)c(C(=O)N[C@H]2COC(=O)[C@@H](NC(=O)c3cccc(O)c3O)COC(=O)[C@@H](NC(=O)c3cccc(O)c3O)COC2=O)c1` [conjugate 29, Tert-butyl(1-(3-(((3S,7S,11S)-7,11-bis(2,3-dihydroxybenzamido)-2,6,10-trioxo-1,5,9-trioxacyclododecan-3-yl)carbamoyl)-4,5-dihydroxyphenyl)-1-oxo-5,8,11-trioxa-2-azatridecan-13-yl)carbamate], the “growth restoration of E. coli (fepA-)” value in data set [6] is recorded as “No growth restoration”. For the same molecule, the “growth restoration of E. coli (fes-)” value in data set [7] was “No growth restoration”.

Turning to `O=C(NCCOCCOCCOCCNC(=O)C1CCCCC1)c1cc(O)c(O)c(C(=O)N[C@H]2COC(=O)[C@@H](NC(=O)c3cccc(O)c3O)COC(=O)[C@@H](NC(=O)c3cccc(O)c3O)COC2=O)c1` [conjugate 30, N^3-((3S,7S,11S)-7,11-Bis(2,3-dihydroxybenzamido)-2,6,10-trioxo-1,5,9-trioxacyclododecan-3-yl)-N^1-(1-cyclohexyl-1-oxo-5,8,11-trioxa-2-azatridecan-13-yl)-4,5-dihydroxyisophthalamide], the “growth restoration of E. coli (fepA-)” value in data set [6] is listed as “No growth restoration”. Besides, in [3], the “growth enhancement of P. aeruginosa (pfeA-)” value was “no growth enhancement” and the “growth inhibition of P. aeruginosa (pfeA-)” value was “growth inhibition at micromolar concentrations”. Moreover, the “growth restoration of E. coli (fes-)” value in data set [7] was “No growth restoration”.

On to `O=C(N[C@H]1COC(=O)[C@@H](NC(=O)c2cccc([O-])c2[O-])COC(=O)[C@@H](NC(=O)c2cccc([O-])c2[O-])COC1=O)c1cccc([O-])c1[O-].[Fe+3]` [ferric enterobactin], for which the “affinity of FepA for ferric enterobactin” value in data set [8] is given as “sub-nanomolar affinity”. For the same molecule, the “affinity of lcn2 for ferric enterobactin” value in data set [9] is reported as “low-nanomolar affinity”.

Consider Vancomycin-PEG-Ent [conjugate 42], for which, in data set [2] (+DP), the “effect on E. coli growth” value is given as “inhibited the growth of E. coli”. For the same molecule, the “effect on growth of P. aeruginosa (pvd-, pch-)” value in [4] (±DP) is given as “growth inhibitory effect”.
